In US9682067B2, “Methods of improving cognitive function” (priority 2010, dated 2017):
Like-named read-outs stand apart in the source and are kept apart here.

Tests used:
kainate receptors = assay: Post-burst AHP amplitude in pyramidal neurons of brain slices after brief kainate exposure; format: cell-based, rat; settings: for averaged AHP amplitude: after ten minutes long exposure to kainate, p<0.05
Protocol: brain slices of the pirofm cortex hippocampus are prepared and recordings were obtained from pyramidal neurons, with sharp electrodes for current clamp studies of AHP and neuronal adaptation. Data was collected from at least 20 neurons taken for 6 rats or more in each experimental group.
for after-hyper-polarization (AHP) measurement, neurons were depolarized in current clamp mode to Vm of −60 mV with DC current injection, and 100 ms long depolarizing current steps were applied with intensity sufficient to evoke trains of 6 action potentials. AHP amplitude was measured from baseline to the peak of the hyperpolarizing voltage deflection that follows the spike train (FIGS. 2A1 and 2A2). The AHP value was determined from the averaged amplitude in 4-5 consecutive traces, evoked at intervals of 10 sec. FIGS. 2A1 and 2A2 show the same trace on different time scales. Neurons were held at membrane potential of −60 mV and post-burst AHP was generated by 100 ms depolarizing current step injection via the recording electrode, with intensity sufficient to generate a train of 6 action potentials.
These experiments included a brief, ten minutes long, exposure to kainate. […] This decrease outlasted while kainate was present and was always apparent for the total length to kainate exposure (FIG. 8A).
The post burst AHP in neurons from trained rats was not affected by exposure to kainate. The averaged AHP in kainate induced, trained neurons was 6.63±2.4 (n=7).

GluR6 = format: cell-based, mice; settings: 1 sec depolarizing pulse, Ithx2, versus control
Protocol: For neuronal adaptation measurements, prolonged (1 sec) depolarizing current steps are applied to the neurons via the recording electrode at Vrest, with stimulus intensity of twice IThreshold (FIG. 2B). The firing frequency was measured between each of two spikes in the train, and values were normalized to the initial frequency at which the first two spikes are generated. FIG. 2B is a graph depicting an example for neuronal firing adaptation in layer II pyramidal cell.
FIG. 10B is a bar graph depicting the number of spikes following kainate application in GluR6+/+ and GluR6−/− neurons, as opposed to control, (n) depicts the number of neurons.

GluR6 receptor = assay: Complex olfactory discrimination learning in 4-arm maze after injection into the brain ventricles; format: in vivo; settings: rats; 500 nmol into the brain ventricles, evaluation 10 min after daily injection; saline injected rats 8 days; p<0.001
Protocol: Olfactory discrimination protocol was performed in a 4-arm radial maze, with odors that are frequently used in the food industry (FIG. 1A). FIG. 1A is a schematic description of the 4-arm maze: an electronic ‘start’ command opens randomly two out of eight valves (V), releasing a positive-cue odor (P) into one of the arms and a negative-cue odor (N) into another. Eight seconds later, the two corresponding guillotine doors (D) are lifted to allow the rat to enter the selected arms. Upon reaching the far end of an arm (90 cm long), the rat body interrupts an infrared beam (I, arrow) and a drop of drinking water is released from a water hose (W) into a small drinking well (for a trained rat—only if the arm contains the positive-cue odor, for pseudo-trained rat—randomly). A trial ends when the rat interrupts a beam, or in 10 seconds, if no beam was interrupted. A fan is operated for 15 seconds between trials, to remove odors.
Olfactory training included 20 trials per day. […] A pseudo-trained group of age-matched rats was exposed to the same protocol of training, but with random water rewarding. An age-matched naive group of rats was water-deprived, without exposure to training. A day following memorization of a pair of odors by the rats in the trained group, both trained and pseudo trained groups were trained with a new pair of odors. […]

SMILES	averaged AHP amplitude (kainate receptors; neurons from naive animals, n=16)	averaged AHP amplitude (kainate receptors; neurons from pseudo trained rats, n=7)	effect on post burst AHP (kainate receptors; neurons from trained rats, exposure to kainate)	averaged AHP (kainate receptors; neurons from trained rats, kainate induced, n=7)	number of action potentials (spikes) following kainate application (GluR6; neurons from GluR6 knockout (GluR6-/-) mice)	number of action potentials (spikes) following kainate application (GluR6; neurons of wild type (GluR6+/+) mice)	averaged number of training days required for learning completion (GluR6 receptor)
C=C(C)[C@H]1CN[C@H](C(=O)O)[C@H]1CC(=O)O [kainate, kainic acid]	6.0±2.5	6.63 ± 2.4	not affected	6.63±2.4	no effect	doubles	
Cc1onc(O)c1CCC(N)C(=O)O (racemic) [homo-AMPA, (RS)-2-amino-4-(3-hydroxy-5-methylisoxazol-4-yl)butyric acid]							less than five
